Experiments:
SARS-COV-2 [1] = test: SARS-COV-2 viral RNA synthesis in Calu-3 cells (real time RT-PCR); assay type: cell-based; conditions: 1.0 μM
[2] = Cardiovascular safety pharmacology by telemetry; conditions: rats; 50 or 250 mg/Kg oral, single or repeated (7 days)
Method: Data are presented as mean±S.E.M. Statistical analysis was performed by two-way ANOVA followed by Bonferroni post hoc test. n=4-6 animals per group.

[3] = target: human ERG potassium channel (ether-a-gogo-related gene, Kv11.1) (Homo sapiens, UniProt Q12809); test: hERG FLIPR Potassium assay in HEK293 cells; conditions: up to 300 μM
[4] = Pharmacokinetics of MB-905 in plasma of mice
Text: FIG. 8A to 8F. […] The number of animals is shown in each figure legends. The vertical lines represent the mean±the standard error deviation.
All animals were maintained under SPF (Specific Pathogen Frec) animal conditions and were obtained from CIEnP facility, whose breeding colonies were purchased from Charles River Laboratories (USA). […] The samples collected from each animal and at each collection time were processed and analyzed individually. For the analysis of plasma and lung, UPLC-MS/MS equipment was used, whose system consists of a Xevo TQS mass spectrometer with a triple-quadrupole mass analyzer, from Waters. The mass spectrometer is coupled to a high-performance liquid chromatograph (Acquity H-Class). The acquisition and treatment of the data were performed with the MassLynx software. […] The calculation of bioavailability was performed using the following equation: F (%)=[(Intravenous dose×oral AUC)/(Oral dose×Intravenous AUC)]×100.

SARS-COV-2 [5] = test: SARS-COV-2 RNA loads in human primary monocytes; assay type: cell-based; conditions: 24 h
Method: FIG. 5A, 5B and 5C. The compounds impair SARS-COV-2 RNA synthesis and SARS-COV-2-induced release of inflammatory mediators in human primary monocytes.
Human primary monocytes were obtained after 3 h of plastic adherence of peripheral blood mononuclear cells (PBMCs). PBMCs were isolated from healthy donors by density gradient centrifugation (Ficoll-Paque, GE Healthcare). PBMCs (2.0×10^6 cells) were plated onto 48-well plates (NalgeNunc) in RPMI-1640 without serum for 2 to 4 h. Non-adherent cells were removed, and the remaining monocytes were maintained in DMEM with 5% human serum (HS; Millipore) and penicillin/streptomycin. Monocytes were infected at MOI of 0.1. After 1 h inoculation period, cells were washed with phosphate saline buffer (PBS) to remove unbounded viruses and treated with 1 μM of the indicated compounds. After 24 h after infection, cell monolayers werc lysed total viral RNA was extracted, quantitative RT-PCR was performed, to detect the SARS-COV-2 and the housekeeping gene RNAse P.

[6] = Toxicokinetics in the 28-day study; assay type: in vivo, mice; conditions: for AUC / Cmax / Tmax / half-life: CD1, mouse, in vivo, po
SARS-COV-2 [7] = test: SARS-COV-2 viral RNA synthesis in HuH-7 cells (real time RT-PCR); assay type: cell-based
[8] = Cytotoxicity assay (XTT) in Calu-3 cells; assay type: cell-based, human; conditions: human, Calu-3 cells, Table 6
Method: In parallel, cytotoxicity assays were performed.

[9] = both, CD1, mouse, plasma, iv, 3 mg/kg
[10] = both, CD1, mouse, plasma, po, 30 mg/kg
[11] = female, 10 mg/kg, female mice, 10 mg/kg, Day 0
[12] = female, 10 mg/kg, female mice, 10 mg/kg, Day 28
[13] = female, 80 mg/kg, female mice, 80 mg/kg, Day 0
[14] = female, 80 mg/kg, female mice, 80 mg/kg, Day 28
[15] = female, 250 mg/kg, female mice, 250 mg/kg, Day 0
[16] = female, 250 mg/kg, female mice, 250 mg/kg, Day 28
[17] = male, 10 mg/kg, male mice, 10 mg/kg, Day 0
[18] = male, 10 mg/kg, male mice, 10 mg/kg, Day 28
[19] = male, 80 mg/kg, male mice, 80 mg/kg, Day 0
[20] = male, 80 mg/kg, male mice, 80 mg/kg, Day 28
[21] = male, 250 mg/kg, male mice, 250 mg/kg, Day 0
[22] = male, 250 mg/kg, male mice, 250 mg/kg, Day 28

Sequence of human ERG potassium channel (ether-a-gogo-related gene, Kv11.1) (Q12809 whole entry): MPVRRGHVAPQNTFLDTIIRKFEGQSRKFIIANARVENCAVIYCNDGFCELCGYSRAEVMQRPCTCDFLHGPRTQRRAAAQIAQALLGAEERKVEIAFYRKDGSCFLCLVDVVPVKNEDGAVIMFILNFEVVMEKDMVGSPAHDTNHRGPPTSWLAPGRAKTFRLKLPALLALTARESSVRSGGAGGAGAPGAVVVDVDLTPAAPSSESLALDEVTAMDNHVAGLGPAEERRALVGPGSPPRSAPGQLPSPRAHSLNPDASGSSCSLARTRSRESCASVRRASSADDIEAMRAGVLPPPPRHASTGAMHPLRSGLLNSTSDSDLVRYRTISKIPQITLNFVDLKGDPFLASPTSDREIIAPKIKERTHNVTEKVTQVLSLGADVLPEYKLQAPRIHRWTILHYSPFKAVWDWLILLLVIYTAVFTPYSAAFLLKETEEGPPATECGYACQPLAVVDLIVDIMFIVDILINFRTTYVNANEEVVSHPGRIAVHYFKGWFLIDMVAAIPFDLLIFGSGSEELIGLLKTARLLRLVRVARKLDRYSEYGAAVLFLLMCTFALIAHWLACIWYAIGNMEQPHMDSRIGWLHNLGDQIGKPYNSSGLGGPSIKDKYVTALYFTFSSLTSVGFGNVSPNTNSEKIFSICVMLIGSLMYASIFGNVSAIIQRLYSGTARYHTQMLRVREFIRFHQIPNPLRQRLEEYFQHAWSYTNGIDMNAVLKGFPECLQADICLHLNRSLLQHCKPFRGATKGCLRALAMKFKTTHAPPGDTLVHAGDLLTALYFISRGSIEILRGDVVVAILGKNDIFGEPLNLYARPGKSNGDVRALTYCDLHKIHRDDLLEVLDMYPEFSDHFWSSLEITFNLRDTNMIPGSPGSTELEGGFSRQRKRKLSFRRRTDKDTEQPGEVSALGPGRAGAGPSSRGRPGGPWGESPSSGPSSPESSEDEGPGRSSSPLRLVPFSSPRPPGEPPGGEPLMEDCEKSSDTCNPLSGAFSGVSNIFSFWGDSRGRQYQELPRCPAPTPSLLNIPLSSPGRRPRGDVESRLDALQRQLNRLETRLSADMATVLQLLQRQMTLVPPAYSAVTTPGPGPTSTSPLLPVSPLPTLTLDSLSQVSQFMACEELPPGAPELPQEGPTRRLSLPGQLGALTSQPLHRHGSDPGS

With c1coc(CNc2ncnc3[nH]cnc23)c1 [MB-905, kinetin] the “inhibition of SARS-COV-2 RNA synthesis” value (SARS-COV-2 [1]) was “best profiles”, the “cardiovascular hemodynamic parameters (systolic, diastolic, mean blood pressure, heart rate)” value [2] was “did not induces any changes” and the “inhibition of potassium permeation through the hERG channel” value [3] was “about 20%”. For the same compound, the Cmax [4, 9] was 135 ng/mL, the Vd [4, 9] was 19.4 L/kg and the AUC(0-t) [4, 10] was 366 ng·h/mL. The Cmax [4, 10] was 570 ng/mL, the half-life [4, 10] was 66 min and the Cmax ([4]; both, CD1, mouse, plasma, po, 550 mg/kg) was 1050 ng/mL. The AUCall ([4]; mice plasma, 3 mg/kg (i.v.)) was 66.41 ng·h/mL, the CL ([4]; mice plasma, 3 mg/kg (i.v.)) was 918.38 mL/min/kg and the Cmax ([4]; mice plasma, 3 mg/kg (i.v.)) was 155.16 ng/mL. It also gave an F ([4]; mice plasma, 3 mg/kg (i.v.)) of 100%, a Ke ([4]; mice plasma, 3 mg/kg (i.v.)) of 3.09 h⁻¹ and a T1/2 ([4]; mice plasma, 3 mg/kg (i.v.)) of 13.2 min. The Tmax ([4]; mice plasma, 3 mg/kg (i.v.)) was 4.98 min, the Vz ([4]; mice plasma, 3 mg/kg (i.v.)) was 19.04 L/kg and the AUClast ([4]; mice plasma, 3 mg/kg (i.v.), 3 mg/kg) was 55.58 ng·h/mL. The CL ([4]; mice plasma, 30 mg/kg (v.o.)) was 1060.15 mL/min/kg, the Ke ([4]; mice plasma, 30 mg/kg (v.o.)) was 0.62 h⁻¹ and the Vz ([4]; mice plasma, 30 mg/kg (v.o.)) was 102.21 L/kg. For the same compound, the F ([4]; mice plasma, 30 mg/kg (v.o.), 30 mg/kg) was 53,5%, the Ke ([4]; mice plasma, 550 mg/kg (v.o.)) was 0.25 h⁻¹ and the F ([4]; mice plasma, 550 mg/kg (v.o.), 550 mg/kg) was 36.1%. For the same compound, the “viral RNA levels/cell” value (SARS-COV-2 [5]) was “reduced”, the AUC [6, 11] was 422 ng·h/mL and the Cmax [6, 11] was 288 ng/mL. It also gave a Tmax [6, 11] of 15 min, an AUC [6, 12] of 56.6 ng·h/mL and a Cmax [6, 12] of 95 ng/mL. For the same compound, the Tmax [6, 12] was 15 min, the AUC [6, 13] was 5010 ng·h/mL and the Cmax [6, 13] was 747 ng/mL. For the same compound, the Tmax [6, 13] was 15 min, the half-life [6, 13] was 1550 min and the AUC [6, 14] was 1590 ng·h/mL. For the same compound, the Cmax [6, 14] was 464 ng/mL, the Tmax [6, 14] was 15 min and the half-life [6, 14] was 65.4 min. It also gave an AUC [6, 15] of 4910 ng·h/mL, a Cmax [6, 15] of 898 ng/mL and a Tmax [6, 15] of 15 min. The half-life [6, 15] was 185 min, the AUC [6, 16] was 2080 ng·h/mL and the Cmax [6, 16] was 716 ng/mL. It also gave a Tmax [6, 16] of 15 min, a half-life [6, 16] of 155 min and an AUC [6, 17] of 91 ng·h/mL. The Cmax [6, 17] was 99 ng/mL, the Tmax [6, 17] was 15 min and the AUC [6, 18] was 121 ng·h/mL. For the same compound, the Cmax [6, 18] was 144 ng/mL, the Tmax [6, 18] was 15 min and the AUC [6, 19] was 1020 ng·h/mL. The Cmax [6, 19] was 598 ng/mL, the Tmax [6, 19] was 15 min and the half-life [6, 19] was 72.6 min. It also gave an AUC [6, 20] of 1170 ng·h/mL, a Cmax [6, 20] of 750 ng/mL and a Tmax [6, 20] of 15 min. The AUC [6, 21] was 4480 ng·h/mL, the Cmax [6, 21] was 793 ng/mL and the Tmax [6, 21] was 60 min. The AUC [6, 22] was 1130 ng·h/mL, the Cmax [6, 22] was 588 ng/mL and the Tmax [6, 22] was 15 min. For the same compound, the half-life [6, 22] was 91.8 min, the “accumulation (AUCall and Cmax day 0 vs day 28)” value ([6]; mice, males and females) was “no there was an accumulation” and the EC50 (SARS-COV-2 [7]; Severe acute respiratory syndrome coronavirus 2, Huh-7 (MOI 0.1 48 h), read-out: EC50) was 0.1 µM. For the same compound, the “anti-coronavirus activity with simultaneous adenine” value (SARS-COV-2 [7]; huh-7, adenine at 10 μM) was “prevented”, the “anti-coronavirus activity (SARS-COV-2 replication)” value (SARS-COV-2 [7]; huh-7, treatment just after inoculation) was “concentration dependent inhibition” and the CC50 at 3 days ([8]; Calu-3, daily treatment) was 538 µM. For the same compound, the CC50 at 3 days ([8]; Calu-3, single treatment) was 620 µM.

From patent US20240207302A1, “ANTIVIRAL COMPOUNDS, METHODS FOR THE MANUFACTURING OF COMPOUNDS, ANTIVIRAL PHARMACEUTICAL COMPOSITION, USE OF THE COMPOUNDS AND METHOD FOR THE ORAL TREATMENT OF CORONAVIRUS INFECTION AND RELATED DISEASES THEREOF” (priority 2021, published 2024)
